Data as given in PubChem BioAssay (NCI).
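Following 48 hours of exposure in 96-well plates, responses at five concentrations were used to interpolate endpoints linearly. The concentration for 50% growth inhibition is given as GI50. TGI is the concentration that stops growth completely.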

Experiments:
Assay in all cases: NCI anticancer screen, dose series, 48 h
[1] = system: 786-0 renal
[2] = system: ACHN renal
[3] = system: HCT-15 colon
[4] = system: IGROV1 ovarian
[5] = system: NCI-H226 lung
[6] = system: NCI-H522 lung
[7] = system: OVCAR-3 ovarian
[8] = system: SK-MEL-28 melanoma
[9] = system: U251 CNS
[10] = system: UO-31 renal

| Structure (SMILES) | TGI [1] [µM] | TGI [2] [µM] | TGI [3] [µM] | TGI [4] [µM] | TGI [5] [µM] | TGI [6] [µM] | TGI [7] [µM] | TGI [8] [µM] | TGI [9] [µM] | TGI [10] [µM] | GI50 [1] [µM] | GI50 [2] [µM] | GI50 [3] [µM] | GI50 [4] [µM] | GI50 [5] [µM] | GI50 [6] [µM] | GI50 [7] [µM] | GI50 [8] [µM] | GI50 [9] [µM] | GI50 [10] [µM] |
| --- | --- | --- | --- | --- | --- | --- | --- | --- | --- | --- | --- | --- | --- | --- | --- | --- | --- | --- | --- | --- |
| COc1ccc2c3c(ccc2c1)NC(C(=O)O)CC3 (stereo not drawn) | > 100 | > 100 | > 100 | > 100 | > 100 | > 100 | > 100 | > 100 | > 100 | > 100 | – | – | – | – | – | – | – | – | – | – |
| Cc1ccccc1NC(=O)N/C(N)=N/c1nc(C)c(C)s1 | > 100 | > 57 | > 100 | > 100 | > 100 | > 42.5 | 13.5 | > 100 | > 46.6 | > 100 | 0.652 | 0.7 | 0.0647 | 0.35 | 2.08 | 0.0478 | 0.17 | 23.7 | 0.305 | 1.1 |
| COc1ccc(C2CC(c3ccc4ccccc4c3)=NN2/C=C2\SC(=S)N(NC(=O)Cc3ccccc3Nc3c(Cl)cccc3Cl)C2=O)cc1 (stereo not drawn) | > 38.1 | > 71.5 | > 65.1 | > 42 | > 32.3 | 4.76 | – | > 50 | > 36.7 | – | 0.508 | 0.684 | 0.467 | 0.588 | 1.14 | 0.372 | 0.343 | 4.45 | 0.402 | 0.354 |
| CCCCCCCC(=O)SCC/C=C/[C@@H]1CC(=O)NCc2cccc(n2)C2=N[C@@](C)(CS2)C(=O)N[C@@H](C(C)C)C(=O)O1 | > 33.3 | 0.693 | > 33.3 | 0.525 | > 9.23 | 0.845 | 1.07 | 3.01 | 0.782 | 1.03 | 0.0989 | 0.0897 | 0.249 | 0.0263 | 0.21 | 0.0192 | 0.0877 | 0.0312 | 0.0802 | 0.0647 |
| COc1ccc2nc(-c3ccc(Cl)cc3)cc(-c3nnc(SCC(=O)Nc4ccc(/C(C)=N\O)cc4)o3)c2c1 | 3.04 | 8.04 | 16.4 | 20.6 | 14.4 | 3.83 | 5.47 | 7.63 | 1.9 | 20.5 | 1.02 | 1.85 | 1.88 | 3.93 | 3.86 | 1.2 | 1.58 | 1.81 | 0.974 | 3.26 |
| CS(=O)(=O)c1nccc(-c2c(-c3cccc(OCc4ccccc4)c3)nc3sccn23)n1 | > 100 | > 100 | > 100 | > 100 | > 100 | > 100 | > 100 | > 100 | > 100 | 78 | 12.9 | 36.4 | 12 | 10.3 | 12.1 | 9.12 | 14.4 | 12.2 | 19.6 | 21.2 |
| C=C(c1ccc(OC)c(/C=C/C(=O)c2cc(OC)c(OC)c(OC)c2)c1)c1cc(OC)c(OC)c(OC)c1 | 3.7 | 2.58 | 2.79 | 5.88 | 3.29 | 5.63 | 3.18 | 3.45 | 2.12 | 2.34 | 1.68 | 1.26 | 0.552 | 2.07 | 1.41 | 1.1 | 1.53 | 1.52 | 0.773 | 1.07 |
| Oc1ccccc1/C=N/Nc1nc2ccccc2s1 | 89 | > 100 | > 100 | > 100 | > 100 | > 100 | 34.7 | > 100 | > 100 | > 100 | 7.96 | 6.14 | 2.17 | 2.77 | 10.7 | 4.74 | 2.46 | 89 | 8.1 | 4.86 |
| N=C(N)c1ccc(CS(=O)(=O)F)cc1 | > 100 | > 100 | > 100 | > 100 | > 100 | > 100 | > 100 | > 100 | > 100 | > 100 | > 100 | > 100 | > 100 | > 100 | > 100 | > 100 | > 100 | > 100 | > 100 | > 100 |
| Nc1nc2ccccc2c2[nH]c3ccccc3c12 | 2.61 | 1.79 | 2.43 | 2.42 | 37.2 | 2.14 | 4.37 | 3.19 | 2.43 | 2.61 | 1.12 | 0.485 | 0.671 | 0.806 | 9.74 | 0.901 | 1.42 | 1.79 | 1.2 | 1.31 |
| Cc1cc(NCCCNc2ccnc3cc(Cl)ccc23)nc(Nc2ccc(C(=O)N3CCCCC3)cc2)n1 | 3.72 | 8.23 | 6.79 | 12.7 | 36.9 | 4.45 | 5.91 | 3.75 | 4.92 | 5.87 | 1.83 | 2.85 | 2.52 | 3.09 | 21.8 | 2.19 | 2.36 | 2 | 2.25 | 2.16 |
| C=C(c1ccccc1)[C@@]1(O)CCCC[C@H]1NC(c1ccccc1)c1ccccc1 | 25.5 | 23.9 | 24.5 | 42.4 | 22.6 | 21.6 | 24.7 | 30.2 | 24.5 | 27.6 | – | – | – | – | – | – | – | – | – | – |
| Nc1nc(=O)c2[nH]cnc2n1O | > 100 | > 100 | > 100 | > 100 | > 100 | > 100 | > 100 | > 100 | > 100 | > 100 | – | – | – | – | – | – | – | – | – | – |
